Experimental data taken from ChEMBL document CHEMBL5113545, “Selective Cyclin-Dependent Kinase Inhibitors and Their Application in Cancer Therapy” (ACS Med Chem Lett, 2022).

The compounds below were run against Cyclin-dependent kinase 2/cyclin E1 (Homo sapiens, UniProt P24941) (assay: Inhibition of human full length recombinant C-terminal 6His-tagged CDK2/N-terminal GST-tagged cyclin E1 expressed in baculovirus-infected Sf21 cells using 5-FAM- QSPKKG peptide as substrate preincubated with enzyme and ATP for 30 mins followed by substrate addition and measured after 20 hrs by fluorescence- based microfluidic mobility shift assay).

IC50 [nM] | SMILES
≤ 100 | Cc1cc(CC(=O)Nc2cc([C@H]3CC[C@@H](OC(=O)N4CCC4(C)C)C3)[nH]n2)on1
≤ 100 | Cc1ncc(CC(=O)Nc2cc([C@H]3CC[C@@H](OC(=O)NC(C)C)C3)[nH]n2)s1
≤ 100 | COc1cc(CC(=O)Nc2cc([C@H]3CC[C@@H](OC(=O)NC(C)C)C3)[nH]n2)ccn1
≤ 100 | CC(C)NC(=O)O[C@H]1CC[C@@H](c2cc(NC(=O)c3ccnn3C)n[nH]2)C1
≤ 100 | CC(C)NC(=O)O[C@@H]1CC[C@H](c2cc(NC(=O)Cc3ccccc3S(C)(=O)=O)n[nH]2)C1
≤ 100 | CC1(NC(=O)O[C@@H]2CC[C@H](c3cc(NC(=O)Cc4ccccc4)n[nH]3)C2)CC1
≤ 100 | CC(C)NC(=O)O[C@@H]1CC[C@H](c2cc(NC(=O)c3ccnc4ncsc34)n[nH]2)C1
≤ 100 | CC(C)NC(=O)O[C@@H]1CC[C@H](c2cc(NC(=O)c3ccnn3C)n[nH]2)C1
≤ 100 | Cc1cc(CC(=O)Nc2cc([C@H]3CCC[C@@H](OC(=O)NC4(C)CC4)CC3)[nH]n2)on1
≤ 100 | COCc1cc(C(=O)Nc2cc([C@H]3CC[C@@H](OC(=O)N(C)C(C)C)C3)[nH]n2)n(C)n1
≤ 100 | CC1(NC(=O)O[C@H]2CC[C@@H](c3cc(NC(=O)Cc4ccccc4)n[nH]3)C2)CC1
≤ 100 | CC(C)NC(=O)O[C@@H]1CC[C@H](c2cc(NC(=O)Cc3ccccc3)n[nH]2)C1
